Data reported in the METLIN SMRT retention time set (Domingo-Almenara et al. 2019).

Assay: gradient 5% acetonitrile 3 min, to 50% in 2 min, to 85% in 15 min, held 3 min, 100 µL/min
Conditions: column: Zorbax Extend-C18 2.1 x 50 mm; eluents: water / acetonitrile, 0.1% formic acid
In short: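 Values are retention times taken from adduct peaks that software picked and an analyst inspected. The pure standards were run as mixtures of ~100 molecules on HPLC linked to a quadrupole time-of-flight mass spectrometer, in positive and negative ionization mode. A Zorbax Extend-C18 column (2.1 × 50 mm, 1.8 μm) was used at 100 μL/min with water and acetonitrile, each including 0.1% formic acid.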

| RP-LC retention time | SMILES |
| --- | --- |
| 574 s | Cc1occc1C(=O)N1CCCn2ccnc2C1C(C)C (configuration not stated) |
| 664 s | Cc1nc(C)c(C(=O)N2CCC(Cc3noc(C4CC4)n3)C2)s1 (configuration not stated) |
| 882 s | CCOC(=O)c1cnc(NC(=O)c2ccc(S(=O)(=O)N3CCCCC3)cc2)s1 |
| 907 s | CC(=O)N1c2ccc(S(=O)(=O)N3CCCC3)cc2CC1C(=O)NC1CCCCCCC1 (configuration not stated) |
| 803 s | Cc1ccc(C)c(NC(=O)c2c(C)oc3nc(C)nc(N4CCOCC4)c23)c1 |
| 793 s | CCCCC(=O)N1CCCN(C2=NS(=O)(=O)C(c3ccccc3)=C2C)CC1 |
| 1020 s | Cc1coc(C)c1C(=O)Nc1ncc(Cc2ccc(Cl)cc2)s1 |
| 1160 s | Cc1cccc(S(=O)(=O)N2CCc3nc(-c4ccccc4)ncc3C2)c1C |
| 684 s | CCCNC(=O)Cn1ccn2nc(-c3ccccc3)c(CO)c2c1=O |
| 581 s | O=C(Nc1ccc(F)cc1F)N1CCN(CCn2c(-c3ccncc3)nc3cccnc32)CC1 |
| 854 s | COc1ccc(-c2nc3ncc4c(=O)n(CCc5ccc(OC)c(OC)c5)ccc4n3n2)cc1 |
| 882 s | COC(=O)c1sccc1S(=O)(=O)Nc1ccc(CC(=O)N2CCC(O)CC2)cc1 |
| 983 s | COc1ccc(-c2nc(-c3cn(Cc4cccc(F)c4)nn3)no2)cc1 |
| 612 s | CCc1ccc2[nH]c3c(c(=O)c2c1)CN(CC(=O)NCc1ccc(OC)cc1)CC3 |
| 841 s | Cc1noc(-c2ccnc(-n3ncc(C(=O)N4CCCCC4)c3C)c2)n1 |
| 973 s | COc1ccc(C)cc1NS(=O)(=O)c1cc2c3c(c1)CCC(=O)N3CCC2 |
| 899 s | COC(=O)c1cc(OCC(=O)Nc2ccc(Cl)cc2)c2cc(OC)ccc2n1 |

| RP-LC retention time | SMILES |
| --- | --- |
| 703 s | O=C(COc1ccc(Cl)cc1)NCc1nnc(SCC(=O)Nc2nccs2)o1 |
| 811 s | Cc1sc(NC(=O)C2CC2)nc1-c1ccc2c(c1)N(C)C(=O)CO2 |
| 983 s | COCCOC1CCC12CCN(S(=O)(=O)c1ccccc1C)CC2 (configuration not stated) |
| 896 s | COCc1nc(-c2ccc(OC3CCN(C(=O)C4(c5ccc(OC)cc5)CC4)C3)cc2)no1 (configuration not stated) |
| 670 s | COc1ccc(NC(=O)C2CCN(c3cncnc3N3CCCCC3)CC2)cc1 |
| 821 s | CCc1ccccc1NC(=O)C1CCCN1S(=O)(=O)c1cc2c(cc1C)NC(=O)CO2 (configuration not stated) |
| 628 s | O=C1NC(C(=O)NC2CCCC2)Cn2cccc21 (configuration not stated) |
| 680 s | O=C(NCCCN1CCCC1)c1ccc(-c2noc(-c3ccccc3)n2)s1 |
| 870 s | COc1ccc(C2CC(=O)N(c3ccc(F)cc3F)C(=O)C2)cc1OC |
| 719 s | Cc1cccc(NC(=O)NCC(c2cccnc2)c2cn(C)c3ccccc23)c1C (configuration not stated) |
| 912 s | CCCCc1c(-c2ccc(OC)cc2)[nH]c2nccnc12 |
| 872 s | COc1ccccc1-c1nc2nccc(-c3ccsc3)n2n1 |
| 686 s | CCCCC(=O)N(C)CC1CCOCC1 |
| 712 s | COc1ccc(OC)c(C(O)CN2CCN(c3cccc(C)c3)CC2)c1 (configuration not stated) |
| 648 s | O=C(O)[C@@H]1OCC(=O)N(C2CC2)[C@H]1c1ccccc1 |
| 589 s | CCN(CC)C(=O)c1cnc2nc(C)ccc2c1Nc1ccc(C(C)=O)cc1 |

Further lines, the molecule ahead of its results:

| SMILES | RP-LC retention time |
| --- | --- |
| COC(=O)c1c(C)[nH]c(C(=O)N2CCC(CC(=O)NC(C)C)CC2)c1C | 663 s |
| Cc1sc(-c2nc(C(C)C)cs2)cc1S(=O)(=O)Nc1cc(F)ccc1F | 1220 s |
| Cc1cnc(C(=O)N[C@@H]2CCC[C@@H]2C(=O)NCC2CCCCC2)cn1 | 742 s |
| Clc1ccc(-c2csc(N3CCOCC3)n2)c(Cl)c1 | 1260 s |
| CCC(C)NC(=O)CC1CCN(C(=O)c2[nH]c(C)c(C(=O)OC(C)C)c2C)CC1 (configuration not stated) | 775 s |
| Cc1ccc(Nc2nc3ccncc3n(C(C)C)c2=O)cc1Cl | 771 s |
| COc1cccc(C(=O)N2CCCC(c3nnc(-c4ccccc4)o3)C2)c1 (configuration not stated) | 822 s |
| O=C(CC1CCCCN1S(=O)(=O)c1ccccc1)NCCc1c[nH]c2ccccc12 (configuration not stated) | 794 s |
| COc1ccc(NC(=O)c2cc(C)n3nc(-c4ccco4)cc3n2)cc1OC | 933 s |
| Cc1ccc2[nH]cc(CCNC(=O)C3CCN(c4ccc(N5CCCCC5)nn4)CC3)c2c1 | 685 s |
| Cn1cccc1C(=O)C(=O)NCCc1ccc(Cl)cc1 | 939 s |
| COc1ccc(NC(=O)C2CCCN2S(=O)(=O)c2cc3c(cc2C)NC(=O)C(C)O3)cc1Cl (configuration not stated) | 824 s |
| COC(=O)C1C(=O)C2=C(CC1C)NC(C)=C(C(=O)OCCOC(C)C)C2c1cccc(F)c1 (configuration not stated) | 961 s |
| O=S(=O)(c1ccc2nncn2c1)N(Cc1ccccc1Cl)c1ccccc1 | 885 s |
| Cc1ccc(C)c(NC(=O)N2CCC(N3CCN(Cc4ccccc4)C(=O)C3=O)CC2)c1 | 740 s |
| O=C(c1ccc(-c2noc(C3CC3)n2)cc1)N1CCCN(c2nc3ncccc3o2)CC1 | 760 s |
| CCN(CC)S(=O)(=O)c1cc(-c2nnc(-c3ccc(OC)c(OC)c3)o2)ccc1C | 991 s |

| SMILES | RP-LC retention time |
| --- | --- |
| O=c1cc(-c2ccncc2)nc(N2CCCC2)n1Cc1cccc(F)c1 | 1230 s |
| COc1ccc(N2CCN(S(=O)(=O)c3cc(-c4nnc(C5CCC5)o4)co3)CC2)cc1 | 1000 s |
| Brc1ccc(-c2noc(Cc3nc(-c4ccc5c(c4)OCO5)cs3)n2)cc1 | 1270 s |
| Cc1oc(-c2[nH]ncc2C(=O)N(C)C)cc1S(=O)(=O)Nc1ccc(C(C)C)cc1 | 770 s |
| CN(C)c1cnc(-n2cc(NC(=O)c3cccc(N(C)C)c3)cn2)nc1 | 672 s |
| CSCc1csc(NC(=O)c2ccc(F)c(F)c2)n1 | 857 s |
| CCS(=O)(=O)Nc1ccc(-c2noc(CNS(=O)(=O)c3ccccc3)n2)cc1 | 720 s |
| c1cncc(-c2nnc3sc(-c4ccc5c(c4)OCCO5)nn23)c1 | 827 s |
| Cc1ccc(-c2nnc(CC(=O)NCC3CCCO3)o2)cc1 (configuration not stated) | 667 s |
| Cc1noc(C)c1S(=O)(=O)N1CCCN(S(=O)(=O)c2ccccc2)CCC(=O)NCC1 | 752 s |
| COc1ccc(-n2c(=O)n(C)c(=O)c3cc(C(=O)Nc4ccc(C(N)=O)cc4)cnc32)cc1 | 668 s |
| COC(=O)c1ccc(CSc2nc3ccccc3[nH]2)cc1 | 648 s |
| O=C(NC1CC1)c1cc(=O)[nH]c2ccccc12 | 587 s |
| O=C(CN1C(=O)COc2ccc(C(=O)N3CCCC3)cc21)NCCc1ccc(Cl)cc1 | 765 s |
| CCOc1ccc(C(O)CN2CCN(c3ccccn3)CC2)cc1Cl (configuration not stated) | 591 s |
| Cc1ccc(-c2nc(-c3cccc(-c4ccnn4C)c3)no2)cc1 | 1210 s |
| COc1ccc(CN(Cc2ccccc2)Cc2cc(=O)n3cc(Cl)ccc3n2)cc1OC | 687 s |
